Laboratory results taken from PubChem BioAssay AID2060602 (Molecular Pharmacology Branch, DTP, NCI, 2025).

Test system: 648629-189-R-J1-PDC complex spheroids viability
Experiment: Anticancer human tumor 648629-189-R-J1-PDC patient-derived bladder carcinoma cell line growth inhibition [CLK]
Settings: for IC50: curve of first compound; for viability, T/C: stronger effect = lower value
Outline: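 Patient-derived tumor cells grown as complex spheroids with HUVEC endothelial cells and mesenchymal stem cells, treated with drug combinations. Concentrations descend in half-log steps from near clinical Cmax, or from 10 microM if Cmax unknown.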

[1] = second compound 0.0316 µM, first compound 0.0316 µM
[2] = second compound 0.0316 µM, first compound 0.1 µM
[3] = second compound 0.0316 µM, first compound 0.316 µM
[4] = second compound 0.0316 µM, first compound 1 µM
[5] = second compound 0.0316 µM, first compound 3.16 µM
[6] = second compound 0.0316 µM, first compound 10 µM
[7] = second compound 0.1 µM, first compound 0.0316 µM
[8] = second compound 0.1 µM, first compound 0.1 µM
[9] = second compound 0.1 µM, first compound 0.316 µM
[10] = second compound 0.1 µM, first compound 1 µM
[11] = second compound 0.1 µM, first compound 3.16 µM
[12] = second compound 0.1 µM, first compound 10 µM
[13] = second compound 0.316 µM, first compound 0.0316 µM
[14] = second compound 0.316 µM, first compound 0.1 µM
[15] = second compound 0.316 µM, first compound 0.316 µM
[16] = second compound 0.316 µM, first compound 1 µM
[17] = second compound 0.316 µM, first compound 3.16 µM
[18] = second compound 0.316 µM, first compound 10 µM
[19] = second compound 1 µM, first compound 0.0316 µM
[20] = second compound 1 µM, first compound 0.1 µM
[21] = second compound 1 µM, first compound 0.316 µM
[22] = second compound 1 µM, first compound 1 µM
[23] = second compound 1 µM, first compound 3.16 µM
[24] = second compound 1 µM, first compound 10 µM
[25] = second compound 3.16 µM, first compound 0.0316 µM
[26] = second compound 3.16 µM, first compound 0.1 µM
[27] = second compound 3.16 µM, first compound 0.316 µM
[28] = second compound 3.16 µM, first compound 1 µM
[29] = second compound 3.16 µM, first compound 3.16 µM
[30] = second compound 3.16 µM, first compound 10 µM
[31] = second compound 10 µM, first compound 0.0316 µM
[32] = second compound 10 µM, first compound 0.1 µM
[33] = second compound 10 µM, first compound 0.316 µM
[34] = second compound 10 µM, first compound 1 µM
[35] = second compound 10 µM, first compound 3.16 µM
[36] = second compound 10 µM, first compound 10 µM
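For viability, T/C in this document: drug exposure lasted seven days before viability readout; 100% = DMSO vehicle control wells.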

`COc1ccc([C@@H](O)c2cc(-c3ncnc4cc(N5CCOCC5)ccc34)c(F)cc2Cl)nn1` + CN1CCN(c2cc(C(=O)Nc3cc4cc(-c5cnn(C)c5)ccc4cn3)ccn2)CC1 showed an IC50 (second compound 0.0316 µM) of 7780 nM, an IC50 (second compound 0.1 µM) of 8170 nM and an IC50 (second compound 0.316 µM) of under 31.6 nM. The IC50 (second compound 1 µM) was under 31.6 nM, the IC50 (second compound 3.16 µM) was under 31.6 nM and the IC50 (second compound 10 µM) was under 31.6 nM. For the same compound, the viability, T/C [1] was 122%, the viability, T/C [2] was 107% and the viability, T/C [3] was 101%. It also gave a viability, T/C [4] of 95.2%, a viability, T/C [5] of 80% and a viability, T/C [6] of 41.2%. For the same compound, the viability, T/C [7] was 98%, the viability, T/C [8] was 89% and the viability, T/C [9] was 102%. For the same compound, the viability, T/C [10] was 88.9%, the viability, T/C [11] was 80.3% and the viability, T/C [12] was 43.4%. The viability, T/C [13] was 23%, the viability, T/C [14] was 26% and the viability, T/C [15] was 32.9%. It also gave a viability, T/C [16] of 29.2%, a viability, T/C [17] of 26.8% and a viability, T/C [18] of 19.9%. The viability, T/C [19] was 0.13%, the viability, T/C [20] was 0.23% and the viability, T/C [21] was 0.79%. The viability, T/C [22] was 0.13%, the viability, T/C [23] was 0.57% and the viability, T/C [24] was 0.16%. For the same compound, the viability, T/C [25] was 0.06%, the viability, T/C [26] was 0.6% and the viability, T/C [27] was 0.1%. For the same compound, the viability, T/C [28] was 0.08%, the viability, T/C [29] was 0.27% and the viability, T/C [30] was 1.67%. It also gave a viability, T/C [31] of 0.07%, a viability, T/C [32] of 0.13% and a viability, T/C [33] of 0.14%. For the same compound, the viability, T/C [34] was 0.13%, the viability, T/C [35] was 0.92% and the viability, T/C [36] was 0.65%.

For `COc1cccc2c1C(=O)c1c(O)c3c(c(O)c1C2=O)CC(O)(C(=O)CO)CC3OC1CC(N)C(O)C(C)O1` (stereo unspecified) + CN1CCN(c2cc(C(=O)Nc3cc4cc(-c5cnn(C)c5)ccc4cn3)ccn2)CC1, the IC50 (second compound 0.0316 µM) was under 31.6 nM, the IC50 (second compound 0.1 µM) was under 31.6 nM and the IC50 (second compound 0.316 µM) was under 31.6 nM. For the same compound, the IC50 (second compound 1 µM) was under 31.6 nM, the IC50 (second compound 3.16 µM) was under 31.6 nM and the IC50 (second compound 10 µM) was under 31.6 nM. For the same compound, the viability, T/C [1] was 22.1%, the viability, T/C [2] was 17.5% and the viability, T/C [3] was 7.83%. The viability, T/C [4] was 0.53%, the viability, T/C [5] was 0.16% and the viability, T/C [6] was 1.13%. The viability, T/C [7] was 16.5%, the viability, T/C [8] was 14.2% and the viability, T/C [9] was 5%. The viability, T/C [10] was 0.45%, the viability, T/C [11] was 0.14% and the viability, T/C [12] was 0.19%. For the same compound, the viability, T/C [13] was 16.5%, the viability, T/C [14] was 13.5% and the viability, T/C [15] was 4.02%. For the same compound, the viability, T/C [16] was 0.15%, the viability, T/C [17] was 0.1% and the viability, T/C [18] was 0.12%. The viability, T/C [19] was 0.16%, the viability, T/C [20] was 0.14% and the viability, T/C [21] was 0.14%. For the same compound, the viability, T/C [22] was 0.08%, the viability, T/C [23] was 0.11% and the viability, T/C [24] was 0.08%. It also gave a viability, T/C [25] of 0.06%, a viability, T/C [26] of 0.1% and a viability, T/C [27] of 0.09%. It also gave a viability, T/C [28] of 0.07%, a viability, T/C [29] of 0.09% and a viability, T/C [30] of 0.08%. It also gave a viability, T/C [31] of 0.05%, a viability, T/C [32] of 0.61% and a viability, T/C [33] of 0.11%. It also gave a viability, T/C [34] of 0.12%, a viability, T/C [35] of 0.11% and a viability, T/C [36] of 0.1%.

`C=C(F)C(=O)N1CCN(c2nc(OCC3CCCN3C)nc3c2CCN(c2cccc4cccc(Cl)c24)C3)CC1CC#N` (stereo unspecified) + CNC(=O)c1ccc(Nc2nc(OC3CCCC3)c3c(-c4ccc5nc(C)oc5c4)c[nH]c3n2)c(OC)c1 was tested, and the IC50 (second compound 0.0316 µM) was 5950 nM, the IC50 (second compound 0.1 µM) was 3810 nM and the IC50 (second compound 0.316 µM) was under 31.6 nM. The IC50 (second compound 1 µM) was under 31.6 nM, the IC50 (second compound 3.16 µM) was under 31.6 nM and the IC50 (second compound 10 µM) was under 31.6 nM. For the same compound, the viability, T/C [1] was 110%, the viability, T/C [2] was 107% and the viability, T/C [3] was 120%. The viability, T/C [4] was 106%, the viability, T/C [5] was 111% and the viability, T/C [6] was 0.23%. The viability, T/C [7] was 70.8%, the viability, T/C [8] was 71.7% and the viability, T/C [9] was 66.6%. The viability, T/C [10] was 65%, the viability, T/C [11] was 60.1% and the viability, T/C [12] was 0.52%. It also gave a viability, T/C [13] of 26%, a viability, T/C [14] of 27.9% and a viability, T/C [15] of 29%. It also gave a viability, T/C [16] of 22.4%, a viability, T/C [17] of 24.4% and a viability, T/C [18] of 0.16%. For the same compound, the viability, T/C [19] was 18.6%, the viability, T/C [20] was 17.9% and the viability, T/C [21] was 23%. It also gave a viability, T/C [22] of 20.2%, a viability, T/C [23] of 20.8% and a viability, T/C [24] of 0.14%. For the same compound, the viability, T/C [25] was 18.8%, the viability, T/C [26] was 19.3% and the viability, T/C [27] was 19.9%. It also gave a viability, T/C [28] of 19.4%, a viability, T/C [29] of 19.7% and a viability, T/C [30] of 0.19%. The viability, T/C [31] was 21.2%, the viability, T/C [32] was 18.6% and the viability, T/C [33] was 18.2%. It also gave a viability, T/C [34] of 19.8%, a viability, T/C [35] of 19.1% and a viability, T/C [36] of 0.26%.
